Results: publication PMC6661955, “Indole bearing thiadiazole analogs: synthesis, β-glucuronidase inhibition and molecular docking study” (BMC Chemistry, 2019)

What follows are molecules tested against T1, β-glucuronidase (Bos taurus, UniProt A3KMY8) (assay: β-glucuronidase inhibition). Conditions: grouping in words.
T1 sequence (A3KMY8 24-652): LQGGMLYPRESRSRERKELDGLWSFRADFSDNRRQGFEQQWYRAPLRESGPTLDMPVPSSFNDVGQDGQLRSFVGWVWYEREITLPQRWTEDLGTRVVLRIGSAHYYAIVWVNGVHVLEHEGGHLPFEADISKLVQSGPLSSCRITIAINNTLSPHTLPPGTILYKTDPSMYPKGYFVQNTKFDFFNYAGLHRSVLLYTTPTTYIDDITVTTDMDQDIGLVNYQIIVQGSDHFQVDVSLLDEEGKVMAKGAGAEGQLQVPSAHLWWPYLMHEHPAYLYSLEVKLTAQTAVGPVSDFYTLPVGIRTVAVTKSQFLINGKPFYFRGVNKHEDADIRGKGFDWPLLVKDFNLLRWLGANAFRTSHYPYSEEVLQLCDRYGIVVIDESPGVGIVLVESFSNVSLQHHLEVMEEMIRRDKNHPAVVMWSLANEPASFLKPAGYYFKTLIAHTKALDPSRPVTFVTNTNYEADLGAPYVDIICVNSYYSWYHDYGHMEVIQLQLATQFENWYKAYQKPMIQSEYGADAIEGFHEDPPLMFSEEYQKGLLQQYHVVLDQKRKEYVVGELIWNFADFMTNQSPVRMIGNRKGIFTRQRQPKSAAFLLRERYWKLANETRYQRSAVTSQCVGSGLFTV
Format: biochemical
With `Cc1ccc(-c2nnc(-c3ccc4[nH]ccc4c3)s2)cc1` [Compound 1, 2-(1H-indol-5-yl)-5-(p-tolyl)-1,3,4-thiadiazole] the “activity group according to inhibitory IC50 values” was “low active”. With `Cc1ccccc1-c1nnc(-c2ccc3[nH]ccc3c2)s1` [Compound 2, 2-(1H-indol-5-yl)-5-(o-tolyl)-1,3,4-thiadiazole] the “activity group according to inhibitory IC50 values” was “low active”. With `Oc1ccccc1-c1nnc(-c2ccc3[nH]ccc3c2)s1` [Compound 3, 2-(5-(1H-indol-5-yl)-1,3,4-thiadiazol-2-yl)phenol] the “activity group according to inhibitory IC50 values” was “highly active”. In the case of `Oc1cccc(-c2nnc(-c3ccc4[nH]ccc4c3)s2)c1` [Compound 4, 3-(5-(indol-5-yl)-1,3,4-thiadiazol-2-yl)phenol], the “activity group according to inhibitory IC50 values” is reported as “moderate active”. `Oc1cccc(-c2nnc(-c3ccc4[nH]ccc4c3)s2)c1O` [Compound 6, 3-(5-(1H-indol-5-yl)-1,3,4-thiadiazol-2-yl)benzene-1,2-diol] was tested, and the “activity group according to inhibitory IC50 values” was “highly active”. In the case of `Oc1ccc(-c2nnc(-c3ccc4[nH]ccc4c3)s2)cc1O` [Compound 7, 4-(5-(1H-indol-5-yl)-1,3,4-thiadiazol-2-yl)benzene-1,2-diol], the “activity group according to inhibitory IC50 values” is reported as “highly active”. With `Oc1ccc(-c2nnc(-c3ccc4[nH]ccc4c3)s2)cc1` [Compound 9, 4-(5-(1H-indol-5-yl)-1,3,4-thiadiazol-2-yl)phenol] the “activity group according to inhibitory IC50 values” was “moderate active”. For `Fc1ccc(-c2nnc(-c3ccc4[nH]ccc4c3)s2)cc1` [Compound 20, 2-(4-fluorophenyl)-5-(1H-indol-5-yl)-1,3,4-thiadiazole], the “activity group according to inhibitory IC50 values” was “moderate active”.
